# Source: patent publication US7547804B2, “Compounds, compositions, and methods employing same” (Myriad Genetics, Inc., priority 2002, dated 2009)
# Tested on: LNCaP cell lines
# Assay: WST-1 Cell Proliferation and Viability Assay
# Type: cell-based
# Settings: Homo sapiens, LNCaP cells
# Method: WST-1 Cell Proliferation and Viability Assay
# Cell proliferation and cell viability was assessed using the tetrazolium salt WST-1 (Roche Applied Science, Indianapolis Ind.). The assay is based on the cleavage of WST-1 (light red) by mitochondrial dehydrogenase causing the formation of formazan (dark red), which can be measured on an optical density (O.D.) reader. LNCaP cell lines were plated in 96 well tissue culture plates (Corning Costar, N.Y.) at a density of 5000 cells/well in 150 μl complete media phenol-red free (RPMI-1640 [Invitrogen, Carlsbad Calif.] and 10% fetal calf serum). This plate is termed the assay plate. After the cells are plated, they are then incubated overnight at 37 degrees Celsius in a humidified chamber containing 5% CO2 (incubator).
# Compounds are added to the assay plate in 50 μl of complete media and 0.4% DMSO (v:v) making the final DMSO concentration 0.1%. The assay plate is then returned to the incubator for 18-72 hours. WST-1 reagent is then added (20 μl/well) and the plate is placed on an ELISA plate shaker for 30 minutes at room temperature. Plates are then transferred back to the incubator for an additional 3 hours. Plates are then read on a 96 well plate O.D. reader at A490-A650.
# [1] = compound incubation 18-72 hours
# [2] = flagged "Estimated": based on actual data at different concentrations
Structure (SMILES),EC50 [1],EC50 [2]
O=C(Nc1cccc(Cl)c1OCCc1ccccc1C(F)(F)F)c1cc(Cl)ccc1O [Compound 137],5 µM,–
CN(CCc1ccccn1)c1ccc(NC(=O)c2cc(Cl)ccc2O)c(OCCc2cccc(C(F)(F)F)c2)c1 [Compound 376],7.3 µM,–
O=C(NCc1cccc(-c2ccccc2)c1)c1cc(Cl)ccc1O [Compound 238],–,30 µM
COc1ccccc1CCOc1cccc(NC(=O)c2cc(C)ccc2O)c1 [Compound 209],17 µM,–
O=C(NCc1cc(-c2ccccc2)ccc1Cl)c1cc(Cl)ccc1O [Compound 293],–,30 µM
O=C(NCc1ccc(F)c(C(F)(F)F)c1)c1cc(Cl)ccc1O [Compound 319],17.7 µM,–
O=C(NCc1cc(C(F)(F)F)cc(C(F)(F)F)c1)c1cc(Cl)ccc1O [Compound 122],9 µM,–
N#Cc1ccc(OCCc2ccccc2)c(NC(=O)c2cc(Cl)ccc2O)c1 [Compound 152],7 µM,–
O=C(Nc1cccc(OC2CCCCC2c2ccc(Cl)cc2)c1)c1cc(Cl)ccc1O (stereo not shown) [Compound 282],4 µM,–
COc1ccc(CCOc2cccc(NC(=O)c3cc(Cl)ccc3O)c2)cc1OC [Compound 34],10 µM,–
O=C(Nc1ccccc1OCCc1ccccc1)c1cc(Cl)ccc1O [Compound 80],4 µM,–
O=C(Nc1cccc(OCCc2ccccc2)c1)c1cccc(-c2ccccc2)c1O [Compound 224],22 µM,–
COc1ccccc1CCOc1cccc(NC(=O)c2ccc(F)cc2O)c1 [Compound 180],12 µM,–
COC(=O)CCc1ccc(OCCc2ccccc2)c(NC(=O)c2cc(Cl)ccc2O)c1 [Compound 326],6.2 µM,–
Cc1c(NC(=O)c2cc(Cl)ccc2O)cccc1OCCc1ccccc1 [Compound 48],7 µM,–
COc1ccc(O)c(C(=O)Nc2cccc(OCCc3ccccc3)c2)c1 [Compound 187],30 µM,–
O=C(Nc1ccccc1)c1cc(Cl)ccc1O [Compound 168],17 µM,–
O=C(Nc1cccc(OCCc2cccc(F)c2)c1)c1cc(Cl)ccc1O [Compound 35],10 µM,–
O=C(Nc1cccc(OCCc2ccccc2)c1)c1cc(Cl)ccc1O [Compound 29],–,30 µM
O=C(NCCc1ccc(Oc2ccccc2)cc1)c1cc(Cl)ccc1O [Compound 54],13 µM,–
COc1ccc(Cl)cc1C(=O)N(C)c1cccc(OCCc2ccccc2)c1 [Compound 215],–,45 µM
COc1ccccc1CCOc1cccc(NC(=O)c2cc(-c3ccc(F)cc3F)ccc2O)c1 [Compound 223],8 µM,–
O=CNc1cccc(C(=O)Nc2cc(C(F)(F)F)ccc2Oc2ccc(Cl)c3ccccc23)c1O [Compound 269],8 µM,–
O=C(Nc1cccc(OCCc2ccccc2)c1)c1cccc(O)c1 [Compound 227],–,22 µM
COc1ccccc1CCOc1cccc(NC(=O)c2cc(-c3ccc(C)cc3)ccc2O)c1 [Compound 340],16 µM,–

Structure (SMILES),EC50 [1],EC50 [2]
CCN(CC)CCN(CC)c1ccc(NC(=O)c2cc(Cl)ccc2O)c(OCCc2cccc(C(F)(F)F)c2)c1 [Compound 361],8 µM,–
Cc1ccc(O)c(C(=O)Nc2cccc(OCCc3ccccc3)c2)c1 [Compound 212],20 µM,–
CC(=O)Nc1cc(F)c(F)cc1C(=O)Nc1cccc(OCCc2ccccc2)c1 [Compound 7],–,30 µM
O=C(Nc1cc(Cl)ccc1OCCc1ccccc1C(F)(F)F)c1cnc2cc(C(F)(F)F)ccc2c1O [Compound 167],6 µM,–
O=C(Nc1cccc(OCCC2CCCCC2)c1)c1cc(Cl)ccc1O [Compound 46],5 µM,–
O=C(Nc1cccc(OCCc2ccccc2)c1)c1cc(F)ccc1O [Compound 184],15 µM,–
O=C(Nc1cc(NC(=O)c2cc(Cl)ccc2O)cc(C(F)(F)F)c1)c1cc(Cl)ccc1O [Compound 151],–,30 µM
COc1ccccc1CCOc1cccc(NC(=O)c2cc(Cl)cc([N+](=O)[O-])c2O)c1 [Compound 336],28 µM,–
O=C(Nc1cccc(OCCCc2ccccc2)c1)c1cc(Cl)ccc1O [Compound 96],10 µM,–
O=C(NCc1cc(F)cc(C(F)(F)F)c1)c1cc(Cl)ccc1O [Compound 320],17.5 µM,–
CCN(CC)CCOc1cccc(CNc2cccc(NC(=O)c3cc(Cl)ccc3O)c2)c1 [Compound 30],50 µM,–
COc1ccccc1CCOc1cccc(NC(=O)c2cc(-c3ccc(Cl)cc3)ccc2O)c1 [Compound 351],11 µM,–
O=C(Nc1cc(Cl)ccc1OC1CCCC[C@H]1c1ccccc1)c1cc(Cl)ccc1O (stereo partly shown) [Compound 98],4 µM,–
Cc1ccc(C(=O)NCc2cccc(-c3ccccc3)c2)c(O)c1 [Compound 205],43 µM,–
CC(C)(C)c1cc(C(=O)NCc2cccc(-c3ccccc3)c2)c(O)c(C(C)(C)C)c1 [Compound 219],32 µM,–
Cc1cccc(C(=O)Nc2cccc(OCCc3ccccc3)c2)c1O [Compound 210],22 µM,–
O=C(NCc1ccccc1OCCc1ccccc1)c1cc(Cl)ccc1O [Compound 116],–,30 µM
COc1ccccc1CCOc1cccc(NC(=O)c2cc(-c3ccsc3)ccc2O)c1 [Compound 335],13 µM,–
O=CNc1cc(Cl)cc(C(=O)Nc2cc(Cl)ccc2OCCc2ccccc2)c1O [Compound 331],12.4 µM,–
Cc1cc(Cl)c(OCCc2ccccc2C(F)(F)F)c(NC(=O)c2cc(Cl)ccc2O)c1C [Compound 240],10 µM,–
CC(C)c1ccccc1-c1cccc(CNC(=O)c2cc(Cl)ccc2O)c1 [Compound 174],11 µM,–
O=C(Nc1cccc(CNc2ccc(Cl)cc2)c1)c1cc(Cl)ccc1O [Compound 74],9 µM,–
CC(C)c1cccc(-c2cccc(CNC(=O)c3cc(Cl)ccc3O)c2)c1 [Compound 175],14 µM,–
Cc1cc(C)c(OCCc2ccccc2)c(NC(=O)c2cc(Cl)ccc2O)c1 [Compound 101],4 µM,–

# More lines, in order of falling EC50 [1], values ahead:
EC50 [1],EC50 [2],Structure (SMILES)
3.3 µM,–,O=C(Nc1cc(Cl)ccc1OCc1ccccc1)c1cc(Cl)ccc1O [Compound 289]
3.3 µM,–,O=C(Nc1cc(Cl)ccc1OCCC1CC1)c1cc(Cl)ccc1O [Compound 288]
3.1 µM,–,CS(=O)(=O)c1ccc(CCOc2ccc(C(F)(F)F)cc2NC(=O)c2cc(Cl)ccc2O)cc1 [Compound 287]
3 µM,–,COc1ccc(CCOc2ccc(Cl)c(NC(=O)c3cc(Cl)ccc3O)c2)cc1 [Compound 37]
3 µM,–,COc1ccccc1CCOc1ccc(Cl)cc1NC(=O)c1cc(Cl)ccc1O [Compound 133]
3 µM,–,Cc1ccc(OCCc2ccccc2C(F)(F)F)c(NC(=O)c2cc(Cl)ccc2O)c1 [Compound 142]
3 µM,–,Cc1ccc(OCCc2ccccc2)cc1NC(=O)c1cc(Cl)ccc1O [Compound 43]
2.4 µM,–,CCN(CC)c1ccc(NC(=O)c2cc(Cl)ccc2O)c(OCCc2cccc(C(F)(F)F)c2)c1 [Compound 360]
2.2 µM,–,O=C(Nc1cc(Cl)ccc1OCc1cccc(C(F)(F)F)c1)c1cc(Cl)ccc1O [Compound 329]
2 µM,–,COCCN(C)c1ccc(NC(=O)c2cc(Cl)ccc2O)cc1C(F)(F)F [Compound 365]
2 µM,–,O=C(Nc1cc(Cl)ccc1OCCc1ccccc1F)c1cc(Cl)ccc1O [Compound 107]
2 µM,–,CC(C)(C)c1ccc(OCCc2ccccc2)c(NC(=O)c2cc(Cl)ccc2O)c1 [Compound 102]
2 µM,–,O=C(Nc1cccc(Cl)c1OCCc1cccc(C(F)(F)F)c1)c1cc(Cl)ccc1O [Compound 158]
1.2 µM,–,COC(=O)C1CCCN(c2ccc(C(F)(F)F)cc2NC(=O)c2cc(Cl)ccc2O)C1 (stereo not shown) [Compound 315]
1 µM,–,Cc1cc(OCCc2cccc(C(F)(F)F)c2)c(NC(=O)c2cc(Cl)ccc2O)cc1Cl [Compound 243]
1 µM,–,Cc1cc(OCCc2ccccc2C(F)(F)F)c(NC(=O)c2cc(Cl)ccc2O)cc1Cl [Compound 136]
1 µM,–,O=C(Nc1cc(Cl)ccc1OCCc1cccc(Cl)c1)c1cc(Cl)ccc1O [Compound 109]
1 µM,–,O=C(Nc1cc(C(F)(F)F)ccc1SCCc1ccccc1)c1cc(Cl)ccc1O [Compound 259]
1 µM,–,CCOCCOc1ccc(C(F)(F)F)cc1NC(=O)c1cc(Cl)ccc1O [Compound 295]
1 µM,–,Cc1cc(OCCc2ccc(CC(F)(F)F)cc2)c(NC(=O)c2cc(Cl)ccc2O)cc1Cl [Compound 164]
1 µM,–,O=C(Nc1cccc(C(F)(F)F)c1)c1cc(Cl)ccc1O [Compound 56]
1 µM,–,O=C(Nc1cc(C(F)(F)F)ccc1SCCc1cccc(C(F)(F)F)c1)c1cc(Cl)ccc1O [Compound 260]
1 µM,–,O=C(Nc1cc(Cl)ccc1OCCc1cccc(F)c1)c1cc(Cl)ccc1O [Compound 111]
0.9 µM,–,O=C(Nc1cc(C(F)(F)F)ccc1OCCc1cccs1)c1cc(Cl)ccc1O [Compound 244]
0.9 µM,–,O=C(Nc1cc(C(F)(F)F)ccc1N1CCN(c2ccccc2)CC1)c1cc(Cl)ccc1O [Compound 272]
0.9 µM,–,O=C(Nc1cc(C(F)(F)F)ccc1OCCC1CC1)c1cc(Cl)ccc1O [Compound 265]
0.9 µM,–,O=C(Nc1cc(OC(F)(F)F)ccc1OCCc1cccc(C(F)(F)F)c1)c1cc(Cl)ccc1O [Compound 262]
0.8 µM,–,O=C(Nc1cc(Cl)ccc1OCCc1cccc(C(F)(F)F)c1)c1cc(Cl)ccc1O [Compound 83]
0.74 µM,–,Cc1ccc(COc2ccc(C(F)(F)F)cc2NC(=O)c2cc(Cl)ccc2O)cc1 [Compound 332]
0.7 µM,–,O=C(Nc1cc(Cl)ccc1OCCc1ccccc1C(F)(F)F)c1cc(Cl)ccc1O [Compound 82]
